Reference: US12077503B2, “Substituted cyclic amides and their use as herbicides” (FMC CORPORATION, priority 2015, dated 2024)
Like-named read-outs stand apart in the source and are kept apart here.

Legend:
Assay type in all cases: in vivo
[1] = system: corn (Zea mays); assay: Test A postemergence; details: Zea mays, post-emergence, 240 h; for Corn plant response rating (crop injury, 0 = no effect, 100 = complete kill) at 500 g/ha: 500 g ai/ha, visual injury, 0 to 100 scale (0 no effect, 100 complete control)
In short: (§1)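 Preemergence directed soil spray on seeded pots, or postemergence application to plants 2–10 cm, one- to two-leaf. Solvent mixture non-phytotoxic, with surfactant. Scored ~10 d later, visually, 0–100 vs untreated.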

[2] = system: giant foxtail (Setaria faberii); assay: Test A postemergence; details: Setaria faberi, post-emergence, 240 h, postemergence, approx. 10 d; for pest or weed control at 125 g/ha: 125 g ai/ha, visual injury on 0 to 100 scale (0 no effect, 100 complete control), read-out: Foxtail, Giant plant response rating; for pest or weed control at 500 g/ha: 500 g ai/ha, visual injury, 0 to 100 scale (0 no effect, 100 complete control), read-out: Plant response rating, Foxtail, Giant
In short: as §1

[3] = system: Kochia (Kochia scoparia); assay: Test A postemergence; details: Bassia scoparia, post-emergence, 240 h, postemergence, approx. 10 d; for pest or weed control at 125 g/ha: 125 g ai/ha, visual injury on 0 to 100 scale (0 no effect, 100 complete control), read-out: Kochia plant response rating; for pest or weed control at 500 g/ha: 500 g ai/ha, visual injury, 0 to 100 scale (0 no effect, 100 complete control), read-out: Plant response rating, Kochia
In short: as §1

[4] = system: ragweed (common ragweed, Ambrosia elatior); assay: Test A postemergence; details: Ambrosia artemisiifolia, post-emergence, 240 h, postemergence, approx. 10 d; for pest or weed control at 125 g/ha: 125 g ai/ha, visual injury on 0 to 100 scale (0 no effect, 100 complete control), read-out: Ragweed plant response rating
In short: as §1

[5] = system: barnyardgrass (Echinochloa crus-galli); assay: Test A postemergence; details: Echinochloa crus-galli, post-emergence, 240 h; for pest or weed control at 125 g/ha: 125 g ai/ha; for pest or weed control at 500 g/ha: 500 g ai/ha, visual injury, 0 to 100 scale (0 no effect, 100 complete control)
In short: as §1

[6] = system: Galium (catchweed bedstraw, Galium aparine); assay: Test A postemergence; details: Galium, post-emergence, 240 h, postemergence, approx. 10 d; for pest or weed control at 125 g/ha: 125 g ai/ha, visual injury on 0 to 100 scale (0 no effect, 100 complete control), read-out: Galium plant response rating; for pest or weed control at 500 g/ha: 500 g ai/ha, visual injury, 0 to 100 scale (0 no effect, 100 complete control), read-out: Plant response rating, Galium
In short: as §1

[7] = system: ryegrass, Italian (Italian ryegrass, Lolium multiflorum); assay: Test A postemergence; details: Lolium multiflorum, post-emergence, 240 h, postemergence, approx. 10 d; for pest or weed control at 125 g/ha: 125 g ai/ha, visual injury on 0 to 100 scale (0 no effect, 100 complete control), read-out: Ryegrass, Italian plant response rating
In short: as §1

[8] = system: blackgrass (Alopecurus myosuroides); assay: Test A postemergence; details: Alopecurus myosuroides, post-emergence, 240 h; for pest or weed control at 125 g/ha: 125 g ai/ha; for pest or weed control at 500 g/ha: 500 g ai/ha, visual injury, 0 to 100 scale (0 no effect, 100 complete control)
In short: as §1

[9] = system: wheat (Triticum aestivum); assay: Test A postemergence; details: Triticum aestivum, post-emergence, 240 h, postemergence, approx. 10 d; for plant injury at 125 g/ha: 125 g ai/ha, visual injury on 0 to 100 scale (0 no effect, 100 complete control), read-out: Wheat plant response rating
In short: as §1

[10] = system: giant foxtail (Setaria faberii); assay: Test A preemergence; details: Setaria faberi, pre-emergence, 240 h; for pest or weed control at 125 g/ha: 125 g ai/ha, Preemergence, visual injury rating after approximately 10 d, read-out: Foxtail, Giant plant response rating (0 to 100 scale, 0 is no effect, 100 is complete control); for pest or weed control at 500 g/ha: 500 g ai/ha, preemergence, visual injury rating about 10 d after treatment, 0 to 100 scale (0 no effect, 100 complete control), read-out: Foxtail, Giant plant response rating
In short: as §1

[11] = system: Kochia (Kochia scoparia); assay: Test A preemergence; details: Bassia scoparia, pre-emergence, 240 h; for pest or weed control at 125 g/ha: 125 g ai/ha, Preemergence, visual injury rating after approximately 10 d, read-out: Kochia plant response rating (0 to 100 scale, 0 is no effect, 100 is complete control); for pest or weed control at 500 g/ha: 500 g ai/ha, preemergence, visual injury rating about 10 d after treatment, 0 to 100 scale (0 no effect, 100 complete control), read-out: Kochia plant response rating
In short: as §1

[12] = system: ragweed (common ragweed, Ambrosia elatior); assay: Test A preemergence; details: Ambrosia artemisiifolia, pre-emergence, 240 h; for pest or weed control at 125 g/ha: 125 g ai/ha, Preemergence, visual injury rating after approximately 10 d, read-out: Ragweed plant response rating (0 to 100 scale, 0 is no effect, 100 is complete control); for pest or weed control at 500 g/ha: 500 g ai/ha, preemergence, visual injury rating about 10 d after treatment, 0 to 100 scale (0 no effect, 100 complete control), read-out: Ragweed plant response rating
In short: as §1

[13] = system: barnyardgrass (Echinochloa crus-galli); assay: Test A preemergence; details: Echinochloa crus-galli, pre-emergence, 240 h; for pest or weed control at 125 g/ha: 125 g ai/ha, Preemergence, visual injury rating after approximately 10 d, read-out: Barnyardgrass plant response rating (0 to 100 scale, 0 is no effect, 100 is complete control); for pest or weed control at 500 g/ha: 500 g ai/ha, preemergence, visual injury rating about 10 d after treatment, 0 to 100 scale (0 no effect, 100 complete control), read-out: Barnyardgrass plant response rating
In short: as §1

[14] = system: pigweed (Amaranthus retroflexus); assay: Test A preemergence; details: Amaranthus retroflexus, pre-emergence, 240 h; for pest or weed control at 125 g/ha: 125 g ai/ha, Preemergence, visual injury rating after approximately 10 d, read-out: Pigweed plant response rating (0 to 100 scale, 0 is no effect, 100 is complete control); for pest or weed control at 500 g/ha: 500 g ai/ha, preemergence, visual injury rating about 10 d after treatment, 0 to 100 scale (0 no effect, 100 complete control), read-out: Pigweed plant response rating
[15] = system: ryegrass, Italian (Italian ryegrass, Lolium multiflorum); assay: Test A preemergence; details: Lolium multiflorum, pre-emergence, 240 h; for pest or weed control at 125 g/ha: 125 g ai/ha, Preemergence, visual injury rating after approximately 10 d, read-out: Ryegrass, Italian plant response rating (0 to 100 scale, 0 is no effect, 100 is complete control); for pest or weed control at 500 g/ha: 500 g ai/ha, preemergence, visual injury rating about 10 d after treatment, 0 to 100 scale (0 no effect, 100 complete control), read-out: Ryegrass, Italian plant response rating
In short: as §1

[16] = postemergence, approx. 10 d, read-out: Plant response rating, Barnyardgrass
[17] = postemergence, approx. 10 d, read-out: Plant response rating, Blackgrass

| Compound | Corn plant response rating (crop injury, 0 = no effect, 100 = complete kill) at 500 g/ha ([1]; postemergence, approx. 10 d) [%] | pest or weed control at 125 g/ha [2] [%] | pest or weed control at 500 g/ha [2] [%] | pest or weed control at 125 g/ha [3] [%] | pest or weed control at 500 g/ha [3] [%] | pest or weed control at 125 g/ha [4] [%] | pest or weed control at 500 g/ha [5, 16] [%] | pest or weed control at 125 g/ha [6] [%] | pest or weed control at 500 g/ha [6] [%] | pest or weed control at 125 g/ha [7] [%] | pest or weed control at 500 g/ha [8, 17] [%] | plant injury at 125 g/ha [9] [%] | pest or weed control at 125 g/ha [10] [%] | pest or weed control at 500 g/ha [10] [%] | pest or weed control at 125 g/ha [11] [%] | pest or weed control at 500 g/ha [11] [%] | pest or weed control at 125 g/ha [12] [%] | pest or weed control at 500 g/ha [12] [%] | pest or weed control at 125 g/ha [13] [%] | pest or weed control at 500 g/ha [13] [%] | further results |
| --- | --- | --- | --- | --- | --- | --- | --- | --- | --- | --- | --- | --- | --- | --- | --- | --- | --- | --- | --- | --- | --- |
| Cc1cc([C@H]2CNC(=O)[C@@H]2C(=O)Nc2ccccc2F)ccc1C(F)(F)F [Compound 1042] | 70 | 80 | 90 | 30 | 60 | 0 | 90 | 30 | 50 | 30 | 70 | 0 | 90 | 90 | 20 | 70 | 20 | 40 | 90 | 90 | plant injury at 125 g/ha ([1]; 125 g ai/ha, postemergence, visual injury on 0 to 100 scale (0 no effect, 100 complete control), approx. 10 d, read-out: Corn plant response rating): 60%; pest or weed control at 125 g/ha ([5]; postemergence, visual injury on 0 to 100 scale (0 no effect, 100 complete control), approx. 10 d, read-out: Barnyardgrass plant response rating): 80%; pest or weed control at 125 g/ha ([8]; postemergence, visual injury on 0 to 100 scale (0 no effect, 100 complete control), approx. 10 d, read-out: Blackgrass plant response rating): 40%; pest or weed control at 125 g/ha [14]: 30%; pest or weed control at 500 g/ha [14]: 50%; pest or weed control at 125 g/ha [15]: 30%; pest or weed control at 500 g/ha [15]: 50% |
| Cc1ccc([C@H]2CNC(=O)[C@@H]2C(=O)Nc2cccc(F)c2F)cc1C [Compound 1034] | 50 | 20 | 80 | 20 | 30 | 10 | 90 | 40 | 60 | 0 | 30 | 0 | 80 | 90 | 60 | 70 | 30 | 90 | 90 | 90 | Corn plant response rating (crop injury, 0 = no effect, 100 = complete kill) at 125 g/ha ([1]; 125 g ai/ha, Postemergence, visual injury after approximately 10 d, 0 to 100 scale where 0 is no effect and 100 is complete control): 10%; pest or weed control at 500 g/ha ([4]; 500 g ai/ha, visual injury, 0 to 100 scale (0 no effect, 100 complete control), read-out: Plant response rating, Ragweed): 40%; pest or weed control at 125 g/ha ([5]; Postemergence, visual injury after approximately 10 d, 0 to 100 scale where 0 is no effect and 100 is complete control, read-out: Plant response rating, Barnyardgrass): 90%; pest or weed control at 500 g/ha ([7]; 500 g ai/ha, visual injury, 0 to 100 scale (0 no effect, 100 complete control), read-out: Plant response rating, Ryegrass, Italian): 60%; pest or weed control at 125 g/ha ([8]; Postemergence, visual injury after approximately 10 d, 0 to 100 scale where 0 is no effect and 100 is complete control, read-out: Plant response rating, Blackgrass): 20%; plant injury at 500 g/ha ([9]; 500 g ai/ha, visual injury, 0 to 100 scale (0 no effect, 100 complete control), read-out: Plant response rating, Wheat): 50%; pest or weed control at 125 g/ha [14]: 0%; pest or weed control at 500 g/ha [14]: 0%; pest or weed control at 125 g/ha [15]: 20%; pest or weed control at 500 g/ha [15]: 60% |
